# Data published in PMC7864192 (Cancers, 2021).
# Values joined by “and” are separate entries in the source; they are usually repeats but may differ in a detail not shown here. Identical values can stand only once. Like-named read-outs stand apart in the source and are kept apart here.
# Tests used:
# [1] = system: KGN cells (AGCT cell line); assay: Cell viability drug screen (Cell Titer Glo 2.0, 72 h), mono- and combination therapy, KGN; conditions: for IC50: Homo sapiens, read-out: IC50 in monotherapy
# Description: (§1) KGN was cultured in conditions identical to AGCT-patient-derived cell lines.
# (§2) Cell lines were seeded at a density of 500 cells/well in 40 uL in 384-well plates (Corning, NY, USA) with the Multidrop™ cell dispenser (Thermo Fischer Scientific, Waltham, MA, USA) and sealed with Breathe-Easy® membrane (Sigma-Aldrich, St. Louis, MO, USA) to prevent evaporation. The SVOG-3e line was seeded at 1000 cells/well due to contact-dependent growth requirements. For each cell line, three biological repeats and two technical repeats each were performed in order to ensure the validity of the drug screens. […] Subsequently, 11 drugs and 12 drug combinations were dispensed and all wells (excluding blanks and non-DMSO control wells) were normalized to 1% DMSO using the HP Tecan D300e Digital Dispenser (Hewlett-Packard, Palo Alto, CA, USA). All drugs were applied in linear concentration ranges (Table 2), including 16 data points to enable combination drug testing at constant ratios (Table 3). Next, the plates were covered with the Breathe-Easy membrane and incubated. After 72 h, the Multidrop dispensed 15 uL per well of Cell Titer Glo 2.0 (Thermo Fischer Scientific, Waltham, MA, USA) and plates were incubated in the dark for 10 min. After incubation, luminescence excitation was assessed in the Spectramax reader (Molecular Devices, San Jose, CA, USA) (top read, luminescence excitation at 500 nm) and raw data were processed in Microsoft Excel to subtract background luminescence. […] Screens with a Z-factor value of >0.5 were used for further analysis.
# (§3) Overall cell survival (in %) was plotted against the drug concentration range of each drug (in log10[μM]) using GraphPad Prism 8.3.1. Values that exceeded 100% survival (within +20% biological deviation) were normalized to 100% survival. Similarly, values below 0% cell survival (within −20% biological deviation) were normalized to 0% survival. Values exceeding this deviation were excluded. Dose–response curves were obtained using the model “log(inhibitor) vs. variable slope (normalized response)” to fit the dose–response curves and R^2 values were used to indicate how well the model fit the data (Supplementary Materials Figures S4 and S5). […] The IC50 values were calculated based on the Chou–Talalay method using Compusyn software [55]. For anti-hormonal treatment, mostly provided as maintenance therapy, we used IC10 values in addition to the IC50.
# [2] = system: GCPA113 T1.III patient-derived AGCT cell line; assay: Cell viability drug screen (Cell Titer Glo 2.0, 72 h), mono- and combination therapy, GCPA113T1.III; conditions: for DRI (Fa=0,5): GCPA113T1III; for IC50: Homo sapiens
# Description: (§4) Cell lines were seeded at a density of 500 cells/well in 40 uL in 384-well plates (Corning, NY, USA) with the Multidrop™ cell dispenser (Thermo Fischer Scientific, Waltham, MA, USA) and sealed with Breathe-Easy® membrane (Sigma-Aldrich, St. Louis, MO, USA) to prevent evaporation. […] For each cell line, three biological repeats and two technical repeats each were performed in order to ensure the validity of the drug screens. […] Subsequently, 11 drugs and 12 drug combinations were dispensed and all wells (excluding blanks and non-DMSO control wells) were normalized to 1% DMSO using the HP Tecan D300e Digital Dispenser (Hewlett-Packard, Palo Alto, CA, USA). […] Next, the plates were covered with the Breathe-Easy membrane and incubated. After 72 h, the Multidrop dispensed 15 uL per well of Cell Titer Glo 2.0 (Thermo Fischer Scientific, Waltham, MA, USA) and plates were incubated in the dark for 10 min. After incubation, luminescence excitation was assessed in the Spectramax reader (Molecular Devices, San Jose, CA, USA) (top read, luminescence excitation at 500 nm) and raw data were processed in Microsoft Excel to subtract background luminescence. The Z-factor, a mathematical method used to quantify the quality of a drug screen based on the calculation of the separation band between the values of the positive and negative controls, was utilized to assess the quality of drug screens [54]. Screens with a Z-factor value of >0.5 were used for further analysis.
# as §3
# (§5) In addition to the 11 monotherapies, 12 drug combinations were tested (Table 3) simultaneously with the individual drug treatments in the same 384-well plate. […] Synergy was evaluated using the mass action law, a systematic analysis assessing dose–response dynamics in a cost-effective manner [56, 57]. The combination index (CI) was used to indicate antagonistic (CI > 1) additive (CI = 1) and synergistic (CI < 1) effects [55].
# [3] = system: GCPA028 T1.II patient-derived AGCT cell line; assay: Cell viability drug screen (Cell Titer Glo 2.0, 72 h), mono- and combination therapy, GCPA028; conditions: for IC50: Homo sapiens, read-out: IC50 in monotherapy
# Description: as §2
# (§6) Overall cell survival (in %) was plotted against the drug concentration range of each drug (in log10[μM]) using GraphPad Prism 8.3.1. Values that exceeded 100% survival (within +20% biological deviation) were normalized to 100% survival. Similarly, values below 0% cell survival (within −20% biological deviation) were normalized to 0% survival. Values exceeding this deviation were excluded. Dose–response curves were obtained using the model “log(inhibitor) vs. variable slope (normalized response)” to fit the dose–response curves and R^2 values were used to indicate how well the model fit the data (Supplementary Materials Figures S4 and S5). […] The maximum plasma concentration (Cmax) and the plasma concentration at steady state (Css) were used as toxicity thresholds. The Cmax was utilized for drugs in which short, high-dosage time courses are required, while the Css was used for maintenance therapy regimes such as anti-hormonal treatment. […] The IC50 values were calculated based on the Chou–Talalay method using Compusyn software [55]. For anti-hormonal treatment, mostly provided as maintenance therapy, we used IC10 values in addition to the IC50.
# as §5
# [4] = system: GCPA096 T1.V patient-derived AGCT cell line; assay: Cell viability drug screen (Cell Titer Glo 2.0, 72 h), mono- and combination therapy, GCPA096T1.V; conditions: for DRI (Fa=0,5): GCPA096T1V; for IC50: Homo sapiens, 72 h, read-out: IC50 in monotherapy
# Description: as §2, §6, §5
# [5] = system: GCPA096 T1.XVI patient-derived AGCT cell line; assay: Cell viability drug screen (Cell Titer Glo 2.0, 72 h), mono- and combination therapy, GCPA096T1.XVI; conditions: for DRI (Fa=0,5): GCPA096T1XVI; for IC50: Homo sapiens, read-out: IC50 in monotherapy
# Description: as §2, §6, §5
# [6] = cited from earlier work
# [7] = system: GCPA007 T2.IV patient-derived AGCT cell line; assay: Cell viability drug screen (Cell Titer Glo 2.0, 72 h), mono- and combination therapy, GCPA007T2.IV; conditions: for DRI (Fa=0,5): GCPA007T2IV; for IC50: Homo sapiens, read-out: IC50 in monotherapy
# Description: as §4, §3, §5
# [8] = system: SVOG-3e immortalized human granulosa cell line; assay: Cell viability drug screen (72 h), SVOG-3e control; type: cell-based; conditions: monotherapy
# Description: as §1
# (§7) Cell lines were seeded at a density of 500 cells/well in 40 uL in 384-well plates (Corning, NY, USA) with the Multidrop™ cell dispenser (Thermo Fischer Scientific, Waltham, MA, USA) and sealed with Breathe-Easy® membrane (Sigma-Aldrich, St. Louis, MO, USA) to prevent evaporation. The SVOG-3e line was seeded at 1000 cells/well due to contact-dependent growth requirements. For each cell line, three biological repeats and two technical repeats each were performed in order to ensure the validity of the drug screens. […] Subsequently, 11 drugs and 12 drug combinations were dispensed and all wells (excluding blanks and non-DMSO control wells) were normalized to 1% DMSO using the HP Tecan D300e Digital Dispenser (Hewlett-Packard, Palo Alto, CA, USA). […] After incubation, luminescence excitation was assessed in the Spectramax reader (Molecular Devices, San Jose, CA, USA) (top read, luminescence excitation at 500 nm) and raw data were processed in Microsoft Excel to subtract background luminescence. […]
# (§8) Overall cell survival (in %) was plotted against the drug concentration range of each drug (in log10[μM]) using GraphPad Prism 8.3.1. […] The IC50 values were calculated based on the Chou–Talalay method using Compusyn software [55]. […]
# AGCT cell lines = assay: Cell viability drug screen (72 h), summary over AGCT cell lines (12 patient-derived, with or without KGN); type: cell-based, human
# Description: (§9) Cell lines were seeded at a density of 500 cells/well in 40 uL in 384-well plates (Corning, NY, USA) with the Multidrop™ cell dispenser (Thermo Fischer Scientific, Waltham, MA, USA) and sealed with Breathe-Easy® membrane (Sigma-Aldrich, St. Louis, MO, USA) to prevent evaporation. The SVOG-3e line was seeded at 1000 cells/well due to contact-dependent growth requirements. For each cell line, three biological repeats and two technical repeats each were performed in order to ensure the validity of the drug screens. […] Subsequently, 11 drugs and 12 drug combinations were dispensed and all wells (excluding blanks and non-DMSO control wells) were normalized to 1% DMSO using the HP Tecan D300e Digital Dispenser (Hewlett-Packard, Palo Alto, CA, USA). All drugs were applied in linear concentration ranges (Table 2), including 16 data points to enable combination drug testing at constant ratios (Table 3). Next, the plates were covered with the Breathe-Easy membrane and incubated. After 72 h, the Multidrop dispensed 15 uL per well of Cell Titer Glo 2.0 (Thermo Fischer Scientific, Waltham, MA, USA) and plates were incubated in the dark for 10 min. After incubation, luminescence excitation was assessed in the Spectramax reader (Molecular Devices, San Jose, CA, USA) (top read, luminescence excitation at 500 nm) and raw data were processed in Microsoft Excel to subtract background luminescence. The Z-factor, a mathematical method used to quantify the quality of a drug screen based on the calculation of the separation band between the values of the positive and negative controls, was utilized to assess the quality of drug screens [54]. Screens with a Z-factor value of >0.5 were used for further analysis.
# as §6, §5
# [9] = system: GCPA108 T3.IV patient-derived AGCT cell line; assay: Cell viability drug screen (Cell Titer Glo 2.0, 72 h), mono- and combination therapy, GCPA108T3.IV; conditions: for DRI (Fa=0,5): GCPA108T3IV; for IC50: Homo sapiens, read-out: IC50 in monotherapy
# Description: as §9, §6, §5
# [10] = system: GCPA007 T2.I patient-derived AGCT cell line; assay: Cell viability drug screen (Cell Titer Glo 2.0, 72 h), mono- and combination therapy, GCPA007T2.I; conditions: for IC50: Homo sapiens, 72 h, read-out: IC50 in monotherapy; for DRI (Fa=0,5): GCPA007T2I
# Description: as §2, §6, §5
# [11] = system: GCPA096 T1.I patient-derived AGCT cell line; assay: Cell viability drug screen (Cell Titer Glo 2.0, 72 h), mono- and combination therapy, GCPA096T1.I; conditions: for DRI (Fa=0,5): GCPA096T1I; for IC50: Homo sapiens, read-out: IC50 in monotherapy
# Description: as §4, §3, §5
# [12] = system: GCPA113 T1.I patient-derived AGCT cell line; assay: Cell viability drug screen (Cell Titer Glo 2.0, 72 h), mono- and combination therapy, GCPA113T1.I; conditions: for DRI (Fa=0,5): GCPA113T1I; for IC50: Homo sapiens
# Description: as §4, §3, §5
# [13] = system: GCPA096 T1.II patient-derived AGCT cell line; assay: Cell viability drug screen (Cell Titer Glo 2.0, 72 h), mono- and combination therapy, GCPA096T1.II; conditions: for DRI (Fa=0,5): GCPA096T1II; for IC50: Homo sapiens, 72 h, read-out: IC50 in monotherapy
# Description: as §2, §6, §5
# [14] = system: GCPA113 T1.II patient-derived AGCT cell line; assay: Cell viability drug screen (Cell Titer Glo 2.0, 72 h), mono- and combination therapy, GCPA113T1.II; conditions: for DRI (Fa=0,5): GCPA113T1II; for IC50: Homo sapiens
# Description: as §4, §3, §5
# [15] = system: GCPA096 T1.XV patient-derived AGCT cell line; assay: Cell viability drug screen (Cell Titer Glo 2.0, 72 h), mono- and combination therapy, GCPA096T1.XV; conditions: for DRI (Fa=0,5): GCPA096T1XV; for IC50: Homo sapiens, 72 h, read-out: IC50 in monotherapy
# Description: as §9, §6, §5
# [16] = system: MCF-7 human breast cancer cell line; assay: Cell viability drug screen (72 h), MCF-7 positive control for anti-hormonal therapies; type: cell-based; conditions: monotherapy
# Description: as §1, §7, §8
# [17] = system: aromatase inhibitor resistant metastatic breast cancer; conditions: everolimus added to tamoxifen; postmenopausal women; cited from earlier work
# [18] = drug within Carbo+Pacli+Alpelisib
# [19] = drug within Everolimus+Alpelisib
# [20] = 72 h, read-out: IC50 in monotherapy
# [21] = GCPA028, in combination Everolimus+Alpelisib
# [22] = human maximum or steady state plasma concentration, log10 of the uM value
# [23] = human plasma Cmax/Css, log10 of uM value, from phase I/II clinical trials
# [24] = human plasma maximum/steady state concentration, ref phase I/II clinical trials
# [25] = human plasma, maximum or steady state concentration, log10 of uM value
# [26] = human plasma, log10 of uM, phase I/II trials
# [27] = read-out: Cmax/Css plasma, human maximum or steady state plasma concentration
# [28] = read-out: Cmax/Css plasma, human plasma Cmax/Css, from phase I/II clinical trials
# [29] = read-out: Cmax/Css plasma, human plasma maximum/steady state concentration, ref phase I/II clinical trials
# [30] = read-out: Cmax/Css plasma, human plasma, maximum or steady state concentration
# [31] = read-out: Cmax/Css plasma, human plasma, phase I/II trials
# [32] = in combination Carbo+Pacli+Alpelisib
# [33] = in combination Everolimus+Alpelisib
smiles,measurement,setting,value
Cc1nc(NC(=O)N2CCC[C@H]2C(N)=O)sc1-c1ccnc(C(C)(C)C(F)(F)F)c1 [Alpelisib],IC50,[1]; 72 h,24.4 µM
same,IC50,[1],24.4 µM
same,"DRI (Fa=0,5)",[1]; [18],10.9278
same,"DRI (Fa=0,5)",[1]; [19],1.384
same,"DRI (Fa=0,5)",[2]; [18],5.76
same,"DRI (Fa=0,5)",[2]; [19],1.89
same,IC50,[2],11.5 µM
same,IC50,[2]; [20],11.5 µM
same,IC50,[2]; read-out: IC50 in monotherapy,11.5 µM
same,"DRI (Fa=0,5)","[3]; GCPA028, in combination Carbo+Pacli+Alpelisib",4.95
same,"DRI (Fa=0,5)",[3]; [21],0.99
same,IC50,[3]; 72 h,22.8 µM
same,IC50,[3],22.8 µM
same,"DRI (Fa=0,5)",[4]; [18],2.2
same,"DRI (Fa=0,5)",[4]; [19],1.57
same,IC50,[4],15 µM
same,"DRI (Fa=0,5)",[5]; in Carbo+Pacli+Alpelisib,1.95
same,"DRI (Fa=0,5)",[5]; in Everolimus+Alpelisib,1.7
same,IC50,[5]; 72 h,23.5 µM
same,IC50,[5],23.5 µM
same,Cmax/Css plasma (Log 10),[6]; [22],0.84 Log 10
same,Cmax/Css plasma (Log 10),[6]; [23],0.84 Log 10
same,Cmax/Css plasma (Log 10),[6]; [24],0.84 Log 10
same,Cmax/Css plasma (Log 10),[6]; [25],0.84
same,Cmax/Css plasma (Log 10),[6]; [26],0.84
same,Cmax,"[6]; read-out: Cmax (maximum drug concentration achieved in plasma), human plasma, phase I/II studies",6.9 µM and 6.92 µM
same,Cmax,[6]; [27],6.92 µM
same,Cmax,[6]; [28],6.92 µM
same,Cmax,[6]; [29],6.92 µM
same,Cmax,[6]; [30],6.92 µM
same,Cmax,[6]; [31],6.92 µM
same,"DRI (Fa=0,5)",[7]; [32],4.44
same,"DRI (Fa=0,5)",[7]; [33],10.73
same,IC50,[7]; 72 h,26.7 µM
same,IC50,[7],26.7 µM
same,IC50,[8],7.55 µM
same,IC50,"AGCT cell lines; Homo sapiens, median over AGCT cell lines, read-out: median IC50 in monotherapy",15 µM
same,"DRI (Fa=0,5)",[9]; in Carbo+Pacli+Alpelisib,13.6802
same,"DRI (Fa=0,5)",[9]; in Everolimus+Alpelisib,5.603
same,IC50,[9]; 72 h,53.9 µM
same,IC50,[9],53.9 µM
same,IC50,[10],22 µM
same,"DRI (Fa=0,5)",[10]; in Carbo+Pacli+Alpelisib (10:1:2),10.78
same,"DRI (Fa=0,5)",[10]; in Everolimus+Alpelisib (1:2),1.24
same,"DRI (Fa=0,5)",[11]; [32],1.7
same,"DRI (Fa=0,5)",[11]; [33],1.24
same,IC50,[11]; 72 h,11.7 µM
same,IC50,[11],11.7 µM
same,"DRI (Fa=0,5)",[12]; in Carbo+Pacli+Alpelisib,3.06
same,"DRI (Fa=0,5)",[12]; in Everolimus+Alpelisib,0.95
same,IC50,[12],9.59 µM
same,IC50,[12]; [20],9.59 µM
same,IC50,[12]; read-out: IC50 in monotherapy,9.59 µM
same,"DRI (Fa=0,5)",[13]; [18],2.15
same,"DRI (Fa=0,5)",[13]; [19],1.5
same,IC50,[13],12.6 µM
same,"DRI (Fa=0,5)",[14]; [18],1.81
same,"DRI (Fa=0,5)",[14]; [19],1.09
same,IC50,[14],21.4 µM
same,IC50,[14]; [20],21.4 µM
same,IC50,[14]; read-out: IC50 in monotherapy,21.4 µM
same,"DRI (Fa=0,5)",[15]; [18],2.12
same,"DRI (Fa=0,5)",[15]; [19],1.36
same,IC50,[15],14.6 µM
CC(C)(C#N)c1cc(Cn2cncn2)cc(C(C)(C)C#N)c1 [Anastrozole],IC50,[1]; 72 h,> 200 µM
same,IC50,[2]; [20],> 200 µM
same,IC50,[3]; 72 h,> 200 µM
same,IC50,[4],> 200 µM
same,IC50,[5]; 72 h,> 200 µM
same,IC50,[7]; 72 h,> 200 µM
same,IC50,[9]; 72 h,> 200 µM
same,IC50,[10],> 200 µM
same,IC50,[11]; 72 h,> 200 µM
same,IC50,[12]; [20],> 200 µM
same,IC50,[13],> 200 µM
same,IC50,[14]; [20],> 200 µM
same,effect on cell viability at tolerable concentrations,[16],did not decrease cell viability at tolerable concentrations
same,IC50,[15],> 200 µM
CO[C@H]1C[C@@H]2CC[C@@H](C)[C@@](O)(O2)C(=O)C(=O)N2CCCC[C@H]2C(=O)O[C@H]([C@H](C)C[C@@H]2CC[C@@H](OCCO)[C@H](OC)C2)CC(=O)[C@H](C)/C=C(\C)[C@@H](O)[C@@H](OC)C(=O)[C@H](C)C[C@H](C)/C=C/C=C/C=C/1C [Everolimus],IC50,[1]; 72 h,45.2 µM
same,IC50,[1],45.2 µM
same,"DRI (Fa=0,5)",[1]; [19],5.131
same,"DRI (Fa=0,5)",[2]; [19],23.74
same,IC50,[2]; [20],> 50 µM
same,IC50,[2]; read-out: IC50 in monotherapy,> 50 µM
same,"DRI (Fa=0,5)",[3]; [21],2.64
same,IC50,[3]; 72 h,30.3 µM
same,IC50,[3],30.3 µM
same,"DRI (Fa=0,5)",[4]; [19],12.7
same,IC50,[4],> 50 µM
same,"DRI (Fa=0,5)",[5]; in Everolimus+Alpelisib,4.73
same,IC50,[5]; 72 h,32.8 µM
same,IC50,[5],32.8 µM
same,Cmax/Css plasma (Log 10),[6]; [22],-1.19 Log 10
same,Cmax/Css plasma (Log 10),[6]; [23],-1.19 Log 10
same,Cmax/Css plasma (Log 10),[6]; [24],-1.19 Log 10
same,Cmax/Css plasma (Log 10),[6]; [25],-1.19
same,Cmax/Css plasma (Log 10),[6]; [26],-1.19
same,Cmax,[6]; [27],0.0646 µM
same,Cmax,[6]; [28],0.0646 µM
same,Cmax,[6]; [29],0.0646 µM
same,Cmax,[6]; [30],0.0646 µM
same,Cmax,[6]; [31],0.0646 µM
same,increase of time to progression,[17],4.1 months
same,reduction of death risk,[17],55%
same,"DRI (Fa=0,5)",[7]; [33],1.9
same,IC50,[7]; 72 h,> 50 µM
same,IC50,[7],> 50 µM
same,cell lines with some degree of synergy,"AGCT cell lines; everolimus with chemotherapy, 13 cell lines",9 of the 13
same,"DRI (Fa=0,5)",[9]; in Everolimus+Alpelisib,76.7983
same,IC50,[9]; 72 h,> 50 µM
same,IC50,[9],> 50 µM
same,IC50,[10],27.8 µM
same,"DRI (Fa=0,5)",[10]; in Everolimus+Alpelisib (1:2),3.15
same,"DRI (Fa=0,5)",[11]; [33],6.9
same,IC50,[11]; 72 h,32.7 µM
same,IC50,[11],32.7 µM
same,"DRI (Fa=0,5)",[12]; in Everolimus+Alpelisib,20.32
same,IC50,[12]; [20],> 50 µM
same,IC50,[12]; read-out: IC50 in monotherapy,> 50 µM
same,"DRI (Fa=0,5)",[13]; [19],13.23
same,IC50,[13],> 50 µM
same,"DRI (Fa=0,5)",[14]; [19],11.87
same,IC50,[14]; [20],> 50 µM
same,IC50,[14]; read-out: IC50 in monotherapy,> 50 µM
same,"DRI (Fa=0,5)",[15]; [19],16.55
same,IC50,[15],> 50 µM
